Results from PMC9101087, “A Sensitive LC-MS/MS Method for the Simultaneous Determination of Two Thia-Analogous Indirubin N-Glycosides and Indirubin-3′-Monoxime in Plasma and Cell Culture Medium” (Molecules, 2022).

Experiment: Quantification of KD87 in plasma of mice after intraperitoneal injection
Assay type: in vivo
Settings: male, NSG (NOD.Cg-Prkdc^scid Il2rg^tm1Wjl/SzJ), mouse, ip, 20 mg/kg, 20 mg/kg intraperitoneal, mean ± SD n = 8
Experimental: To apply the method validated for plasma, an animal experiment was performed in which KD87 (20 mg/kg body weight) was injected intraperitoneally into NOD.Cg-Prkdc^scid Il2rg^tm1Wjl/SzJ (NSG) mice followed by determination of the plasma concentration of KD87 at two fixed time points, i.e., 30 and 60 min, after administration. For this initial investigation, KD87 was selected because it has shown viability-reducing effects on a large panel of tumor cells both in the present study and in a previous study, making it a good candidate for future in vivo experiments.
Before starting plasma extraction and protein precipitation, 10 µL of the sample plasma was mixed with 40 µL of human plasma. After appropriate sample preparation by protein precipitation or liquid-liquid extraction, KD87 was successfully detected and quantified by LC-MS/MS. Here, for each blood draw, two separate plasma aliquots were extracted or precipitated and subsequently measured. In addition, the MRM transitions of the aglycone KD88 were monitored during the measurement to observe possible deglycosylation of KD87. […] Individual concentrations are presented for each mouse separately (Figure 5A,B) and as averages of the four treated mice (Figure 5C). For protein precipitation, a concentration of 1.89 ± 0.30 µM was determined 30 min after intraperitoneal injection, increasing to 2.93 ± 0.36 µM after 60 min (Figure 5C). Similar values are obtained after liquid-liquid extraction of plasma sample, which yielded a concentration of 2.19 ± 0.32 µM and 3.46 ± 0.50 µM after 30 and 60 min, respectively (Figure 5C).
Figure 5 Quantification of KD87 in plasma of mice 30 and 60 min after intraperitoneal injection of KD87 (20 mg/kg body weight). Prior to sample processing, mouse plasma was diluted 1:5 with human plasma. Shown are the individual values of KD87 in mouse plasma (A) after protein precipitation and (B) after liquid-liquid extraction, as well as (C) the average KD87 concentration values of all four mice for both processing methods. (A,B): The values of two separately processed plasma aliquots of one blood sample per mouse are shown. (C): The bar chart summarizes the results of measurements from panels (A,B), expressed as mean ± standard deviation (SD) of n = 8 values per column.
For experiments, four 13-week-old male NSG mice with a body weight between 20 and 30 g were used. KD87 was administered via intraperitoneal injection at a dose of 20 mg/kg body weight. For this purpose, KD87 was dissolved in ethanol and Cremophore EL (1:1) to a concentration of 6 mg/mL, and diluted further in sterile saline solution (NaCl 0.9%, B. Braun Melsungen AG, Melsungen, Germany) to a final concentration of 2 mg/mL. Per mouse, a total volume of 10 mL/kg of body weight was administered. […]

O=C1/C(=C2/C(=O)N([C@@H]3O[C@H](CO)[C@@H](O)[C@H](O)[C@H]3O)c3ccccc32)Sc2ccccc21 [KD87, 3-[3′-oxo-benzo[b]thiophen-2′-(Z)-ylidene]-1-(β-D-glucopyranosyl)-oxindole]
concentration at 30 min (liquid-liquid extraction): 2190 ± 320 nM | concentration at 30 min (protein precipitation): 1890 ± 300 nM | concentration at 60 min (liquid-liquid extraction): 3460 ± 500 nM | concentration at 60 min (protein precipitation): 2930 ± 360 nM
